Assay results published in US9944721B2, “Polysialic acid and use for treatment of neurodegenerative and neuroinflammatory diseases” (RHEINISCHE FRIEDRICH-WILHELMS UNIVERSITÄT BONN, priority 2013, dated 2018).

Experiments:
Assay type in all cases: cell-based
[1] = system: human microglia stimulated with neural debris or Drusen-like debris; assay: Debris-induced superoxide release of human microglia (macular degeneration culture model, DHE)
Method: Second, effect of PSA-20 on microglia stimulated with neural cellular debris was analyzed. Drusen containing cellular debris is one characteristics of senile macular degeneration. To study the effect of degenerated material on the retinal microglia, we prepared neural debris by hypotonic and mechanic lysis of human neurons derived from induced pluripotent stem cells. Then, we treated the human microglial line derived from induced pluripotent stem cells and analyzed the effect of PSA-20. Superoxide release was determined by the fluorescent dye DHE. […] Cells were fixed with 4% paraformaldehyde plus 0.25% glutaraldehyde and analyzed by confocal microscopy. For the quantification of DHE staining intensity six pictures of each experiment were obtained and analyzed by ImageJ software (NIH). […] Cells were fixed and the intensity of DHE was quantified by confocal microscopy. […]
To obtain Drusen-like debris from the retina, human retinal pigment epithelium ARPE-19 cells were treated with 80 nM okadaic acid for 24 hours at 37° C. and 5% CO2, centrifuged, washed three times with PBS and the pellet was frozen at −20° C. […] Cells were fixed and the release of superoxide was quantified by the intensity of the DHE dye. […]

[2] = system: human induced pluripotent stem cell derived microglia (iPSdM-1); assay: Half maximum effective concentration for reduction of LPS-induced TNF-α gene transcript; details: LPS 1 μg/ml, 24 hours
Method: Human induced pluripotent stem cell derived microglia (iPSdM) were obtained from iPS cells. iPSdM-1 line was used in this study generated from the iLB-C-35m-r1 clone (Bonn). iPSdM-1 (here named microglia or microglial cells) were culture in N2-medium consisting of DMEM/F12 culture medium (Gibco) supplemented with 1% N2 (Invitrogen), 0.48 mM L-glutamine (Gibco) and 100 μg/ml penicillin/streptomycin (Gibco). Cells were cultured with high density and split 1:5. After splitting, cells recovered and attached again to the new dishes.
Cells were treated for 24 hours with 1 μg/ml lipopolysaccharides (LPS) and 5 nM, 15 nM, 50 nM, 150 nM, 500 nM, 1.5 μM, 5 μM, 15 μM, 50 μM or 150 μM of PSA-20. For gene transcript analysis of TNF-α, RNA was collected from cells via the RNeasy kit system (Quiagen) Reverse transcription of the RNA was performed using Super Script II reverse transcriptase (Life Technologies) and hexamer random primers (Roche). Quantitative RT-PCR with specific oligonucleotides was performed with SYBR Green PCR Master Mix (Qiagen) using the ABI 5700 Sequence Detection System (PerkinElmer). The qRT-PCR was running for 40 cycles with a Tm of 60° C. using the same primer as for the PCR. The […] method with GAPDH as internal standard was performed for qRT-PCR quantification.

[3] = system: co-culture of human microglial line and iPS cell derived neurons; assay: Microglial neurotoxicity in human microglia-neuron co-culture, 24 hours (neurite length); details: 1.5 μM, 24 hours co-culture; FIG. 4D
Method: Next, the human microglial line was co-cultured for 24 hours with neurons derived from induced pluripotent stem cells and the effect of low molecular weight polysialic acid (PSA-20; 1.5 μM) on microglial neurotoxicity was evaluated. The human neurons were generated from human induced pluripotent stem cells (iPS cells). In vitro differentiation into neurons was carried out using a short modified protocol, which was used to induce primitive neural precursors. In detail, iPS cells were cultured on feeder cells to form small colonies. Next medium was changed to neural induction medium in the presence of LIF and three small molecules CHIR99021 (inhibitor of GSK-3β) and SB431542 (inhibitor of TGF-β and activin receptors), and compound E (inhibitor of γ-secretase) for 10 days. To expand the neural precursors, cells were dissociated to single cells by accutase and plated on poly-L-ornithine/fibronectin coated cell culture dishes with induction medium in the presence of leukaemia inhibitory factor (LIF), CHIR99021 and SB431542. […] Ten random photographs were taken for each condition by confocal laser scanning microscopy (Fluoview 1000, Olympus) and length of neuronal branches was measured by Neuron J software (NIH).

For poly-(α(2→8)Neu5Ac)n [PSA-20], the relative superoxide production ([1]; Drusen-like debris from ARPE-19 cells, 10 μg/ml PSA-20, 30 minutes, without PSA-20 1.38+/−0.02, FIG. 7C) was 0.92+/−0.22, the “cellular neural debris induced superoxide production” value ([1]; neural debris from human neurons, FIG. 7B) was “prevented” and the “concentration reducing the LPS-induced gene transcription of TNF-α” value ([2]; FIG. 10B) was at least 0.05 µM. The EC50 ([2]; read-out: EC50 in human microglia (reduction of LPS-induced TNF-α gene transcript by 50%)) was 90 nM and the “neurotoxic effect of human microglia on human neurons (relative neurite length)” value [3] was “completely prevented the neurotoxic effect”.
